This note sets out measurements from ChEMBL document CHEMBL1147303, “Antimicrobial tetraprenylphenols from Suillus granulatus” (1989).

Converted amounts (≈) assume the structure as drawn.

Common to all, as to type: functional
In one assay the test system is Hafnia alvei. Briefly: Antibacterial activity against Hafnia alvei by serial broth dilution assay.
The next assay has as its system Bacillus subtilis. Briefly: Antibacterial activity against Bacillus subtilis by serial broth dilution assay.
The subject of another assay is Escherichia coli. Briefly: Antibacterial activity against Escherichia coli ATCC 25922 by serial broth dilution assay.
In the next assay the test system is Aeromonas hydrophila. Briefly: Antibacterial activity against Aeromonas hydrophila by serial broth dilution assay.
For the next assay, the system named is Micrococcus luteus. Briefly: Antibacterial activity against Micrococcus luteus ATCC 4698 by paper disc-agar diffusion assay.
The next assay relates to Proteus mirabilis. Briefly: Antibacterial activity against Proteus mirabilis by serial broth dilution assay.
A further assay relates to Enterococcus faecalis. Briefly: Antibacterial activity against Streptococcus faecalis by serial broth dilution assay.
Another assay relates to Staphylococcus aureus. Briefly: Antibacterial activity against Staphylococcus aureus ATCC 25923 by serial broth dilution assay.

In the case of `COc1c(O)cc(O)cc1C/C=C(\C)CC/C=C(\C)CC/C=C(\C)CCC=C(C)C`, the MIC against Hafnia alvei was above 100 µg/mL; in the assay with Bacillus subtilis it was above 100 µg/mL; in the assay with Escherichia coli it was 1.56 µg/mL (≈ 3.78 µM); against Aeromonas hydrophila it was 0.78 µg/mL (≈ 1.89 µM); in the assay on Micrococcus luteus, 6.25 µg/mL (≈ 15.1 µM); in the assay on Proteus mirabilis, above 100 µg/mL. Moreover, the MIC with Enterococcus faecalis and with Staphylococcus aureus was above 100 µg/mL each time.
For `COc1ccc(O)c(O)c1C/C=C(\C)CC/C=C(\C)CC/C=C(\C)CCC=C(C)C`, the MIC is above 100 µg/mL against Hafnia alvei; above 100 µg/mL in the assay with Bacillus subtilis; above 100 µg/mL against Escherichia coli; above 100 µg/mL in the assay on Aeromonas hydrophila; 100 µg/mL (≈ 242 µM) against Micrococcus luteus; above 100 µg/mL with Proteus mirabilis. Further, the MIC against Enterococcus faecalis and against Staphylococcus aureus was above 100 µg/mL in each case.
`CC(=O)Oc1c(O)cc(O)cc1C/C=C(\C)CC/C=C(\C)CC/C=C(\C)CCC=C(C)C`: the MIC was above 100 µg/mL against Hafnia alvei; above 100 µg/mL against Bacillus subtilis; 6.25 µg/mL (≈ 14.2 µM) in the assay with Escherichia coli; 12.5 µg/mL (≈ 28.4 µM) with Aeromonas hydrophila; 50 µg/mL (≈ 113 µM) in the assay with Micrococcus luteus; above 100 µg/mL against Proteus mirabilis. Further, the MIC in the assay on Enterococcus faecalis and in the assay on Staphylococcus aureus was above 100 µg/mL each time.
For `CC(C)=CCC/C(C)=C/CC/C(C)=C/CCC1(C)C=Cc2c(ccc(O)c2O)O1` (stereo not given), the MIC in the assay with Hafnia alvei, against Bacillus subtilis, with Escherichia coli, against Aeromonas hydrophila, in the assay with Micrococcus luteus and in the assay with Proteus mirabilis was above 100 µg/mL in each case. Further, the MIC in the assay with Enterococcus faecalis and in the assay with Staphylococcus aureus was above 100 µg/mL in each case.
As for `CC(=O)Oc1c(O)ccc(O)c1C/C=C(\C)CC/C=C(\C)CC/C=C(\C)CCC=C(C)C`, the MIC is above 100 µg/mL with Hafnia alvei; above 100 µg/mL against Bacillus subtilis; 50 µg/mL (≈ 113 µM) in the assay with Escherichia coli; above 100 µg/mL against Aeromonas hydrophila; 50 µg/mL (≈ 113 µM) with Micrococcus luteus; above 100 µg/mL against Proteus mirabilis. The MIC is 100 µg/mL (≈ 227 µM) with Enterococcus faecalis and above 100 µg/mL with Staphylococcus aureus.
